Laboratory results taken from publication PMC7284125, “Identification of annotated bioactive molecules that impair motility of the blood fluke Schistosoma mansoni” (International Journal for Parasitology: Drugs and Drug …, 2020).
Like-named read-outs stand apart in the source and are kept apart here. Each block holds one molecule with its values, some of them ahead of it.

Columns and labels:
[1] = test system: adult schistosomes; design: method as in Neves et al., 2016; settings: transient hyperactivity, ref Neves et al., 2016, cited from earlier work
[2] = test system: S. mansoni schistosomulae; assay: Phenotypic primary screen assay on schistosomulae (phenotype; viability by methylene blue dye exclusion); format: cell-based; settings: Schistosoma mansoni; three-day-old schistosomulae, 10 μM, 24 h; calculated 5 days post compound exposure; read-out: Viability (%)
[3] = test system: S. mansoni adult worms; assay: Motility assay on adult parasites (pixel displacement, relative to DMSO control); format: cell-based, Schistosoma mansoni; settings: secondary screen, 10 μM
Procedure, shortened: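 Unpaired adult worms from mice 6 weeks post-infection kept in OPTI-MEM with 5% dialyzed FBS and exposed to compounds at 1 and 10 μM for 24 h. Motility filmed 1 min at 10 frames/s, quantified by pixel displacement versus DMSO-treated worms; recovery followed up to five days after washout.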

[4] = test system: S. mansoni schistosomulae; assay: Motility assay on schistosomulae (pixel displacement, relative to DMSO control); format: cell-based, Schistosoma mansoni; settings: for activity at 1 µM: Schistosoma mansoni, 120 h, D5, 1 µM, read-out: Fractional motility; for motility phenotype in words: after 24 h exposure
Procedure, shortened: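 Mechanically transformed S. mansoni schistosomulae (200/well) in Opti-MEM with 5% dialyzed FBS were exposed to compounds at 1 and 10 μM for 24 h at 37 °C, 5% CO2. Motility filmed at 10 frames/s for 1 min and quantified by pixel displacement relative to DMSO-treated controls.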

[5] = test system: S. mansoni schistosomulae; assay: Phenotypic primary screen assay on schistosomulae (phenotype; viability by methylene blue dye exclusion); format: cell-based, Schistosoma mansoni; settings: for Phenotype: estimated 5 days post compound exposure
Procedure, shortened: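 Parasites lacking contraction/relaxation cycles and showing dark internal granulations counted as dead. Movement and body shape were compared with DMSO-treated controls under a stereo microscope at 24 h and at five days of exposure. Larvae came from infected snails shed under light for 2 h at 32 °C.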

[6] = biological target: Sm5HTR (Schistosoma mansoni, UniProt G4V5G4); assay: cAMP luminescence (GloSensor) assay, HEK293 cells expressing Sm5HTR; format: cell-based, S. mansoni; settings: compound incubation followed by 50 μM 5-HT
[7] = test system: naïve Glo HEK293 cells (no receptor); assay: cAMP luminescence (GloSensor) assay on naïve Glo HEK293 cells (no receptor); format: cell-based, human
Procedure: The SmGPR2 sequence previously identified ([El-Shehabi and Ribeiro, 2010]) was codon optimized for mammalian expression and subcloned in the vector pCI-neo (Addgene, USA) using the XbaI and NotI restriction enzymes. A FLAG fusion tag ([…]) was introduced at the N-terminal end of the receptor sequence. Stable transfection of HEK293 cells (ATCC; CRL-1573) was performed using the X-tremeGENE 9 DNA transfection reagent (Sigma Aldrich). Cells were then cultured at 37 °C, 5% CO2 in Opti-MEM supplemented with 5% FBS and maintained in 400 μg/mL G418 (Sigma Aldrich) for selection of transformants. […] All cell lines expressing S. mansoni GPCRs were then transfected with the GloSensor encoding plasmid p22F (Promega) and media was supplemented with 100 μg/mL hygromycin for stable expression (ThermoFisher).
Adherent HEK293 cells were seeded at a density of 5 x 10^4 cells/well (96-well plate) in Opti-MEM without FBS or antibiotics and incubated overnight at 37 °C and 5% CO2 prior to the assay. In place of the media, 100 μL HBSS supplemented with 0.1% bovine serum albumin (BSA), 500 μM 3-isobutyl-1-methylxanthine (IBMX, Sigma Aldrich), 20 mM HEPES (pH 7.4) and 1 mg/mL D-luciferin (Goldbio) was added to each well. After a 2 h incubation period at room temperature, luminescence background was recorded, and compounds and control ligands were added at 10X concentration. Immediately after compound addition, luminescence was read over a 45 min period to detect compounds stimulating cAMP release through receptor activation. […] For each assay, luminescence responses were recorded in triplicate and repeated with four independant cell batches. Compounds were also added to naïve Glo HEK293 cells (no receptor) and the robustness of the assay was calculated as: Z^'=1−3×(SDmax+SDmin)/Meanmax−Meanmin with max and min referring respectively to cells expressing GPCRs and Glo (no receptor) cells. Cellular viability was assessed using a CellTiter Glo 2.0 kit (Promega). Glo cells were exposed to 10 μM of each hit compound for 3 h in Opti-MEM at 37 °C, 5% CO2. An equimolar concentration of tamoxifen (Sigma Aldrich) was used as a positive control. 2X cell lysis media was then added and end-point luminescence recorded after a 10 min stabilization time.

[8] = biological target: SmD2 (Schistosoma mansoni, UniProt G4LUJ1); assay: cell-based; format: cell-based
[9] = test system: proteasome; design: method as in Bibo-Verdugo et al., 2019; settings: in vitro; ref Bibo-Verdugo et al., 2019; cited from earlier work
[10] = test system: schistosomes; design: method as in Marcellino et al., 2012; settings: ref Marcellino et al., 2012; cited from earlier work
[11] = test system: schistosomes; design: method as in Bibo-Verdugo et al., 2019; settings: in vitro; ref Bibo-Verdugo et al., 2019; cited from earlier work
[12] = biological target: SmGPR2 (Schistosoma mansoni, UniProt G4VIY8); assay: cell-based
Procedure: The SmGPR2 sequence previously identified ([El-Shehabi and Ribeiro, 2010]) was codon optimized for mammalian expression and subcloned in the vector pCI-neo (Addgene, USA) using the XbaI and NotI restriction enzymes. A FLAG fusion tag ([…]) was introduced at the N-terminal end of the receptor sequence. Stable transfection of HEK293 cells (ATCC; CRL-1573) was performed using the X-tremeGENE 9 DNA transfection reagent (Sigma Aldrich). Cells were then cultured at 37 °C, 5% CO2 in Opti-MEM supplemented with 5% FBS and maintained in 400 μg/mL G418 (Sigma Aldrich) for selection of transformants. […]
Adherent HEK293 cells were seeded at a density of 5 x 10^4 cells/well (96-well plate) in Opti-MEM without FBS or antibiotics and incubated overnight at 37 °C and 5% CO2 prior to the assay. […] After a 2 h incubation period at room temperature, luminescence background was recorded, and compounds and control ligands were added at 10X concentration. Immediately after compound addition, luminescence was read over a 45 min period to detect compounds stimulating cAMP release through receptor activation. […] For each assay, luminescence responses were recorded in triplicate and repeated with four independant cell batches. […] Cellular viability was assessed using a CellTiter Glo 2.0 kit (Promega). […] 2X cell lysis media was then added and end-point luminescence recorded after a 10 min stabilization time.

[13] = Selleckchem customized library secondary screen, 24h
[14] = Selleckchem customized library secondary screen, 24h, D1, 10 µM
[15] = Selleckchem customized library secondary screen, 24h, D5, 10 µM
[16] = three-day-old schistosomulae, 10 μM, 24 h

Sequence of SmD2 (G4LUJ1 entry or part of it): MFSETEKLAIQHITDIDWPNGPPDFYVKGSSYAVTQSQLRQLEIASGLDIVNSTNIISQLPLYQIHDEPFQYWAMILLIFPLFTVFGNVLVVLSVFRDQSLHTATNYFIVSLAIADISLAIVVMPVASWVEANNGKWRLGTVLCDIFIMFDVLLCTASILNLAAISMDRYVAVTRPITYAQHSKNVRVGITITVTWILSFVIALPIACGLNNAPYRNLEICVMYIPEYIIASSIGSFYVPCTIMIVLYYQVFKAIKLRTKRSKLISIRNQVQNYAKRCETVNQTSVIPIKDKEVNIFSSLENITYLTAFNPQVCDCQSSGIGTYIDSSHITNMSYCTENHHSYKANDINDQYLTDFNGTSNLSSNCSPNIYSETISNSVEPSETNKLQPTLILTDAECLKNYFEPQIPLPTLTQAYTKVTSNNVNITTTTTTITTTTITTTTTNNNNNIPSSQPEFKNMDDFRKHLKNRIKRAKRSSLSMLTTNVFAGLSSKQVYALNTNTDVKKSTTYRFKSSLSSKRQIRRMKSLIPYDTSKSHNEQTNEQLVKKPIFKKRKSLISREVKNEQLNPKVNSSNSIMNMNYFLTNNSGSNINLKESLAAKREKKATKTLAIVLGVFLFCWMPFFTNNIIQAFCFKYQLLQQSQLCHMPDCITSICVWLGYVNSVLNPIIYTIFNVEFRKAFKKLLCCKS
Sequence of SmGPR2 (G4VIY8 entry or part of it): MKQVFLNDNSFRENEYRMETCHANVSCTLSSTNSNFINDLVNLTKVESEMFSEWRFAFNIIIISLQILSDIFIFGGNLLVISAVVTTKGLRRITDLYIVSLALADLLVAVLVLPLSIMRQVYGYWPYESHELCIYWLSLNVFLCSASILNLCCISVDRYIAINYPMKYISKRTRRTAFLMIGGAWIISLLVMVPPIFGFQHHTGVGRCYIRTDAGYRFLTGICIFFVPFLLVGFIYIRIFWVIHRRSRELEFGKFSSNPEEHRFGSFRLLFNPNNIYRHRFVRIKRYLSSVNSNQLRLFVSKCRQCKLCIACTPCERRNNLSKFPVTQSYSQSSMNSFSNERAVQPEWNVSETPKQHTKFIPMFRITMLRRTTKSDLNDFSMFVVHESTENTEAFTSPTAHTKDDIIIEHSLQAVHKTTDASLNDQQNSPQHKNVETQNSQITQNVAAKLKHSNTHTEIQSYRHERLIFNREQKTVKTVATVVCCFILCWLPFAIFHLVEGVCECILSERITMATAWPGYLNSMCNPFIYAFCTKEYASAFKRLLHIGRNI
Sequence of Sm5HTR (G4V5G4 entry or part of it): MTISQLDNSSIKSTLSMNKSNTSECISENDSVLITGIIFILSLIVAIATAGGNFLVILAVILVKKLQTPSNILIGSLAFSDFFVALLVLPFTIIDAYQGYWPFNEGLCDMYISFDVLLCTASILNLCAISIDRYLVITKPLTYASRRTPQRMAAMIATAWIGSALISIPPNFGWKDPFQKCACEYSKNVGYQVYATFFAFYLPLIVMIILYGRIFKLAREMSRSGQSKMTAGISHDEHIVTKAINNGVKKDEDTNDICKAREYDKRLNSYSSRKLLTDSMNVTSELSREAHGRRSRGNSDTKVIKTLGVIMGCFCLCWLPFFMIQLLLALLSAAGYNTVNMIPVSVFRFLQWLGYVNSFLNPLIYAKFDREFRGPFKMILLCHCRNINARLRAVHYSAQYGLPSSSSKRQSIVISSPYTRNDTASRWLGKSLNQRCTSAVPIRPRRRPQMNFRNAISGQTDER

motility phenotype in words ([4]; schistosomulae): high levels of hypermotility
SMILES: Fc1ccc([C@@H]2CCNC[C@H]2COc2ccc3c(c2)OCO3)cc1 [Paroxetine]
EC50 ([1]; female worms): 11.9 µM | EC50 ([1]; male worms): 2.7 µM | viability at 10 µM [2]: 90% | Fractional motility ([3]; D1, Female adult worms): 0.47 | Fractional motility ([3]; D1, Male adult worms): 1.07 | Fractional motility ([3]; D5, Female adult worms): -0.42 | Fractional motility ([3]; D5, Male adult worms): -0.49 | activity at 1 µM [4, 13]: 256% | Fractional motility [4, 14]: 55.45 | Fractional motility [4, 15]: 1.54 | Phenotype [5, 16]: granulated

SMILES: O=[N+]([O-])c1ccc2c(c1)S(=O)(=O)C=C2 [Stattic]
inhibition of Sm5HTR 5-HT-evoked signals [6]: ≥ 50% | effect on luminescence evoked by forskolin ([7]; 20 μM forskolin): significant decrease in luminescence | Fractional motility ([3]; D1, Female adult worms): 0.39 | Fractional motility ([3]; D1, Male adult worms): -0.03 | Fractional motility ([3]; D5, Female adult worms): -0.90 | Fractional motility ([3]; D5, Male adult worms): 0.23 | Fractional motility ([4]; schistosomulae, 1h exposure, read at D1, 10 µM): -0.71 | Fractional motility ([4]; schistosomulae, 1h exposure, read at D5, 10 µM): -0.69 | Fractional motility ([4]; schistosomulae, 3h exposure, read at D1, 10 µM): -0.97 | Fractional motility ([4]; schistosomulae, 3h exposure, read at D5, 10 µM): -1.00 | Fractional motility ([4]; schistosomulae, 6h exposure, read at D1, 10 µM): -0.91 | Fractional motility ([4]; schistosomulae, 6h exposure, read at D5, 10 µM): -0.99 | Fractional motility ([4]; schistosomulae, secondary screen, 24h exposure, read at D1, 1 µM): 0.84 | Fractional motility ([4]; schistosomulae, secondary screen, 24h exposure, read at D1, 10 µM): 1.23 | Fractional motility ([4]; schistosomulae, secondary screen, 24h exposure, read at D5, 1 µM): -0.47 | Fractional motility ([4]; schistosomulae, secondary screen, 24h exposure, read at D5, 10 µM): -0.96 | Viability (%) ([5]; three-day-old schistosomulae, 10 μM, 24 h, calculated 5 days post compound exposure): 0% | Phenotype [5, 16]: big, dark, granulated

SMILES: Cc1ccc(Sc2ccccc2N2CCNCC2)c(C)c1 [Vortioxetine]
inhibition at 10 µM ([8]; HEK293, SmD2 cells, 10 μM compound, 50 μM EPN, read-out: inhibition of EPN-evoked luminescence): ≥ 50% | IC50 ([8]; inhibition of EPN-evoked luminescence, SmD2 expressing HEK293 cells, read-out: IC50): 3.68 µM | viability at 10 µM [2]: 10% | inhibition of EPN-evoked luminescence ([7]; 50 μM EPN): ≥ 50% | Fractional motility ([3]; D1, Female adult worms): 2.64 | Fractional motility ([3]; D1, Male adult worms): 2.15 | Fractional motility ([3]; D5, Female adult worms): 0.24 | Fractional motility ([3]; D5, Male adult worms): 1.01 | activity at 1 µM [4, 13]: 60% | Fractional motility [4, 14]: 55.99 | Fractional motility [4, 15]: -0.42 | motility phenotype in words ([4]; schistosomulae): high levels of hypermotility | effect on viability of schistosomulae in words ([5]; 24 h incubation, five days): schistosomulicidal | Phenotype [5, 16]: big, granulated

SMILES: CC(C)C[C@H](NC(=O)[C@H](Cc1ccccc1)NC(=O)c1cnccn1)B(O)O [bortezomib]
reduction of proteasome activity [9]: > 75% | motility reduction [10]: > 90% | reduction of worm motility [11]: > 85%

SMILES: CC(C)C[C@H](NC(=O)[C@H](CCc1ccccc1)NC(=O)CN1CCOCC1)C(=O)N[C@@H](Cc1ccccc1)C(=O)N[C@@H](CC(C)C)C(=O)[C@@]1(C)CO1 [carfilzomib]
reduction of proteasome activity [9]: > 75% | motility reduction [10]: > 90% | reduction of worm motility [11]: > 85%

SMILES: NCCc1c[nH]cn1 [histamine]
EC50 [12]: 12.5 ± 1.5 µM
